Key:
rat MAO-A [1] = system: rat MAO-A; set-up: method as in PMID 28771213; settings: Table 1, literature overview; cited from earlier work
rat MAO-B [2] = system: rat MAO-B; set-up: method as in PMID 28771213; settings: Table 1, literature overview; cited from earlier work
Swiss mouse = system: Swiss mouse; set-up: method as in PMID 28771213; settings: controls negative and positive (imipramine); cited from earlier work
rat MAO-B [3] = settings: mitochondrial rat brain; cited from earlier work
rat MAO-A [4] = settings: mitochondrial rat brain; cited from earlier work
DPPH scavenging activity = settings: Table 6, mean ± SEM, n = 3
Protocol: Solutions of synthesized compounds were set in ethanol/water (1:1) having 10 mM to 100 mM at a period of 10 mM. The 0.01% DPPH· stock solution was prepared in ethanol/water (1:1). Samples were prepared as 5 mL DPPH· solution was mixed with 5 mL L-ascorbic acid solution then shaken vigorously and kept in the dark. Corresponding blank sample were prepared and L-ascorbic acid was used as reference standard. […] The actual decrease in absorption induced by the test was compared with the positive controls. The IC50 values were calculated use the dose inhibition curve in linear range by plotting the extract concentration versus the corresponding scavenging effect through following equation [(ADR − APR)/AO] × 100. Where ADR is the absorbance prior to reaction and APR is the absorbance after reaction with DPPH·.

MAO B = biological target: MAO B; set-up: method as in PMID 21190052; settings: cited from earlier work
hMAO-B [5] = biological target: T1, hMAO-B (Homo sapiens, UniProt P27338); settings: eugenol from Rhizoma acori graminei; cited from earlier work
T1 construct: purchased Sigma-Aldrich; host or cells: insect cells (BTI-TN-5B14) infected with recombinant baculovirus
T1 sequence (P27338 1-520): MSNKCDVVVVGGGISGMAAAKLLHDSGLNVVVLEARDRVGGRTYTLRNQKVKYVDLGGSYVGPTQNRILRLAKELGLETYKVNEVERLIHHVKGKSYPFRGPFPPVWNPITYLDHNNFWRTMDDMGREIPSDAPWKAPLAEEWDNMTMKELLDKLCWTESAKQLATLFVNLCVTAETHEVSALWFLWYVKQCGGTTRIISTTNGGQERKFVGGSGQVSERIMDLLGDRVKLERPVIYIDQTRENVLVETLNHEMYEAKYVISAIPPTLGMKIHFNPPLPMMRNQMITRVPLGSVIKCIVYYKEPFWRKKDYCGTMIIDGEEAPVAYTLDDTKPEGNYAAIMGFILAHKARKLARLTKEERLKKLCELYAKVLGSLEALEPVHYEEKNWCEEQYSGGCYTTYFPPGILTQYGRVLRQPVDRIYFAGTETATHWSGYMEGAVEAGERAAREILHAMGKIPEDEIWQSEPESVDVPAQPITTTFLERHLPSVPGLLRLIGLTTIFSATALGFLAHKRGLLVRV

hMAO-B [6] = biological target: T1, hMAO-B; experiment: Recombinant human MAO-B inhibition screening (Amplex Red, p-tyramine); format: biochemical; settings: p-tyramine substrate, mean SEM
Description: (§1) To evaluate IC50 values for the inhibition of human MAO-A and MAO-B by newly synthesized compounds the commercially available recombinant human enzymes expressed in insect cells were used (Sigma-Aldrich). The MAO inhibition assay was based on the method described by Anderson et al., 1993 and Chimenti et al. with some modifications. The Amplex Red MAO Kit tyramine (Sigma-Aldrich) affords a suitable fluorimetric method to evaluate MAO enzyme action of synthetic and natural compounds. In the assay, MAO reacts with p-tyramine, a common substrate for both MAO isoforms, ensuing in the production of H2O2, which is identified by a fluorimetric method (λex = 530/λem = 585 nm). Each test well contained 0.1 mL of sodium phosphate buffer (0.05 M, pH 7.4), a range of concentrations of the eugenol based derivatives or reference compounds along with recombinant hMAO-A or hMAO-B in appropriate quantity. After the preparation of this mixture the wells were subjected to incubation for 15 min at 37 °C, placed in the dark fluorimeter chamber. Once this incubation period over, the process was rendered by mixing 200 µM Amplex Red reagent (Sigma-Aldrich), 1 U/mL horseradish peroxidase (Sigma-Aldrich) and p-tyramine (Sigma-Aldrich). Subsequently, the formation of hydrogen peroxide exerted by MAO isoforms was quantified by using Amplex-Red reagent, a non-fluorescent probe that reacts with H2O2 in the existence of horse radish peroxidase to generate the fluorescent component resorufin. Moreover, the control analysis was calculated in the absence of compound and reference inhibitors. The probability of compounds to change the fluorescence produced in the reaction mix due to non-enzymatic inhibition was assessed by mixing titled compounds to solutions of single Amplex Red reagent in a sodium phosphate buffer. Data were processed in Microsoft Excel, to calculate IC50 values.

mice [7] = system: mice; set-up: method as in PMID 28771213; settings: repeated administration, dose-dependent; cited from earlier work
hMAO-A = biological target: T2, hMAO-A (Homo sapiens, UniProt P21397); experiment: Recombinant human MAO-A inhibition screening (Amplex Red, p-tyramine); format: biochemical
T2 construct: purchased Sigma-Aldrich; host or cells: insect cells (BTI-TN-5B14) infected with recombinant baculovirus
T2 sequence (P21397 1-527): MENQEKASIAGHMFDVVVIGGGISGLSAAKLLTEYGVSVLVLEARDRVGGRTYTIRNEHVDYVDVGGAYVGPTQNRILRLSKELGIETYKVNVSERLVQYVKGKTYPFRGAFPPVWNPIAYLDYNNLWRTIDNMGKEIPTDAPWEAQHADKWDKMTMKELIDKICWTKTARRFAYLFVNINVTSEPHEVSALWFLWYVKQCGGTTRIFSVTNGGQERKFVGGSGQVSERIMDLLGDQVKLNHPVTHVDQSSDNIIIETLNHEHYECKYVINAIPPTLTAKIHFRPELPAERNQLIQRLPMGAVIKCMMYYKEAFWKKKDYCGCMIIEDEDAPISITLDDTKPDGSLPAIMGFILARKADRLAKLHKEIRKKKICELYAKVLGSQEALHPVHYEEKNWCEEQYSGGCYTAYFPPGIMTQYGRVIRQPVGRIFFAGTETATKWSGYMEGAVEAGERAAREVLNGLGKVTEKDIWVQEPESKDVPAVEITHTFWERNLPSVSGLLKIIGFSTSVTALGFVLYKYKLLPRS
Description: as §1

mice [8] = system: mice; set-up: method as in PMID 28771213; settings: cited from earlier work
[9] = Hydrogen peroxide scavenging (H2O2) assay; settings: Table 7, mean ± SEM, n = 3
Protocol: Hydrogen peroxide generally turns into water and oxygen and produces highly toxic hydroxyl radical that renders the damage to DNA and peroxidation of lipid. H2O2 scavenging ability of eugenol based derivatives was evaluated by method described by Nakano and colleagues with some alteration. The hydrogen peroxide solution (40 mM) was prepared in phosphate buffer (40 mM pH 7.4) and addition of several ranges of synthesized derivatives (05–80 μg/mL) was done into H2O2 solution (2 mL). The determination of H2O2 concentration was done by UV/Vis Epoch ELISA reader at 230 nm upon incubation of 10 min. Solution of phosphate buffer without H2O2 was noted as blank reading. The hydrogen peroxide percentage inhibition was estimated through the formula [(AH − AD)/AO] × 100, where AH is the absorbance of the control and AD is the absorbance of compounds/reference taken as 05–80 μg/mL L-ascorbic acid.

human MAO-A = biological target: human MAO-A; set-up: method as in PMID 21190052; settings: competitive inhibitor; cited from earlier work
[10] = Nitric oxide scavenging activity; settings: Table 8, mean ± SEM, n = 3
Description: The generation of nitric oxide (NO·) on biological tissues is mediated by particular nitric oxide synthases enzyme that control the catabolism of the arginine to citrulline via creation of NO through a five electron oxidative reaction. At the physiological pH (7.2) in aqueous solution sodium nitroprusside decompose to produce NO·. Finally, NO· reacts with oxygen at underaerobic conditions and produces stable products (nitrate and nitrite), this amount can be determined by means of Griess reagent. The procedure for the nitric oxide scavenging activity was adopted from reports of Alam et al..

[11] = Ferric reducing antioxidant power (FRAP) assay; settings: Table 9, mean ± SEM, n = 3;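 also: Ferrous-TPTZ reduction read as absorbance at 593 nm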
Protocol: The capacity of antioxidants to decrease ferric iron is measured by this method. The reaction of […] (TPTZ) and complex ferric iron yields ferrous form at low pH. […] This method was adopted from the reports of Benzie et al..

mice [12] = system: mice; set-up: method as in PMID 21190052; settings: administered for 14 days; cited from earlier work

Row | SMILES | IC50 (rat MAO-A [1]) | IC50 (rat MAO-B [2]) | Ki (rat MAO-B [3]) | Ki (rat MAO-A [4]) | other results
1 | C=CCc1ccc(OC)c(OC)c1 [Methyl-eugenol] | 7.12 ± 0.46 µM | 43.23 ± 0.054 µM |  |  | 
2 | COc1cc(C=O)ccc1O [Vanillin] | 17.88 ± 0.16 µM | 45.34 ± 0.09 µM |  |  | Observations in behavioral test (FST) (Swiss mouse): Controls: negative and positive (imipramine) The treatment reduced the spontaneous locomotion
3 | COc1ccc(C(C)=O)c(O)c1 [Paeonol] |  |  | 54.6 µM | 51.1 µM | 
4 | CC1CCC(C(C)C)C(O)C1 (centres unmarked) [Menthol] | 23.1 ± 0.35 µM | 37.4 ± 0.76 µM |  |  | 
5 | C=CCc1ccc(O)c(-c2ccc(O)c(CC=C)c2)c1 [Honokiol] |  |  | 54.6 µM | 38.2 µM | 
6 | Cc1ccc(C(C)C)cc1O [Carvacrol] | 15.6 ± 0.49 µM | 23.42 ± 0.04 µM |  |  | 
7 | C=CCc1ccc(O)c(-c2cc(CC=C)ccc2O)c1 [Magnolol] |  |  | 49.3 µM | 35.4 µM | 
8 | C=CCc1ccc(O)c(OC)c1 [Eugenol] | 5.34 ± 0.065 µM | 24 ± 1.32 µM | 79.9 µM | 25.7 µM | DPPH scavenging IC50 (DPPH scavenging activity): 10.29 ± 0.011 µg/mL; Ki (MAO B): 211 µM; Ki (hMAO-B [5]): 15 µM; IC50 (hMAO-B [6]): 13.3 ± 0.037 µM; Immobility in the FST and tail suspension test (TST) (mice [7]): decreased immobility; Selectivity index (hMAO-A; IC50 (MAO-A)/IC50 (MAO-B)): 1.24; IC50 (hMAO-A; recombinant hMAO-A, p-tyramine substrate, mean SEM): 16.54 ± 0.045 µM; LD50 (mice [8]): 4500 mg/kg; H2O2 scavenging IC50 [9]: 9.980 ± 0.012 µg/mL; Ki (human MAO-A): 25 µM; Nitric oxide scavenging IC50 [10]: 11.724 ± 0.003 µg/mL; FRAP IC50 [11]: 10.627 ± 0.082 µg/mL; Forced swim test (FST) score (mice [12]): significantly increased

From paper PMC6661809, “Lead optimization for promising monoamine oxidase inhibitor from eugenol for the treatment of neurological disorder: synthesis and in silico based study” (BMC Chemistry, 2019)
